In brackets after ≈: the same amount, converted by molar mass.
Experiments:
[1] = Separation in model membrane reactor, water to n-decane across cellulose acetate dialysis membrane; type: physicochemical; details: for recovered into the decane / amount recovered into the decane: Example 5, after 2.5 days; for recovered into the decane: 20 g macerated grapefruit peel (nootkatone 4.3 mg, limonene 135 mg) in 35 ml water; for amount recovered into the decane: grapefruit peel
Description: (§1) Separation experiments were carried out in a small model membrane reactor which consisted of an upper and lower chamber separated by 0.002 m^2 of membrane. Thorough mixing was ensured by use of a magnetic stirrer with a separate stirring bar contained within each chamber. Membrane separations were carried out at room temperature (22° C.).
Gas Chromatography (g.c.)
Analysis of valencene, nootkatone, 1,2-epoxyoctane and 1-octene.
Column—SE-30 capillary (Alltech, Carnforth, Lancs, UK), ID 0.32 mm, film thickness 0.25 μm.
Temperature program 200° C. for 5 min. 10° C. min^−1
Injector/detector temperature—300° C.
Carrier gas-helium, head pressure 0.35 bar

[2] = Selective extraction from water into n-decane in dialysis tubing (shaken flask); type: physicochemical; details: Example 6, 30° C., 45 hours; for amount present in the n-decane phase: 100 mg limonene + 20 mg carvone in 100 ml water, 50 ml n-decane, 150 rpm
Description: Dialysis tubing (cellulose acetate visking tubing MW cut off 12-14,000 Da) containing 50 ml n-decane was added to the flask and the whole incubated at 30° C. with shaking at 150 rpm for 45 hours.

physchem = details: 25 °C, water
[3] = Product recovery from fungal culture broth into solvent in dialysis tubing; type: physicochemical; details: for recovered into the n-decane: 72 h incubation, nootkatol and nootkatone approx. 3.3 mg combined, valencene approx. 150 mg
Description: Product recovery experiments were carried out in fungal or bacterial cultures or in suspensions of fungal or bacterial cells. Reaction media contained: unreacted substrate valencene at 0.3-1.4 mg ml^−1 and the reaction products nootkatol and nootkatone in concentrations ranging from 0.02-0.2 mg ml^−1. Nootkatol and nootkatone differ from the substrate valencene by the presence of only a single hydroxyl or a single keto group respectively. [drawing 1]
Dialysis tubing (as described in Example 1) pre-soaked in deionised water, containing n-hexane (50 ml) was added to each of two separate fungal cultures. On addition of hexane filled tubing, reaction mixtures contained the following:
Culture one contained culture broth and biomass (100 ml), residual valencene (approximately 35 mg) and product nootkatone (2.3 mg). Culture two contained culture broth and biomass (100 ml), residual valencene (approximately 33 mg), product nootkatone (3.8 mg), and Tween 80 (trade mark) (1.3 g).
After 48 h extraction time (30° C., shaking at 160 rpm), 96% of nootkatone had been recovered from culture broth one into n-hexane in the dialysis tubing. The remaining nootkatone was detected in the culture broth. Valencene was not detected in the n-hexane extraction solvent. The efficiency of extraction from culture broth two was 68%. The remaining nootkatone was detected in the culture broth. A trace amount of valencene was detected in the extraction solvent.
Dialysis tubing (details described in Example 7) pre-soaked in deionised water, containing n-decane (50 ml) was added to a fungal culture medium containing: culture broth and biomass (100 ml); residual valencene (approximately 150 mg) and the products nootkatol and nootkatone (approx. 3.3 mg combined weight). After 72 h incubation (conditions described in Example 7) 100% of the nootkatol and nootkatone products had been recovered into the n-decane in the dialysis tubing. Valencene was not detected in the n-decane.

[4] = Separation in model membrane reactor across Supor membrane; type: physicochemical; details: Example 3
Description: as §1

Structure (SMILES) | amount present in the n-decane phase [2] [mg] | share of amount originally added to the water phase found in n-decane [2] [%] | recovered into the decane [1] | amount recovered into the decane [1] [mg] | recovered into the n-decane ([3]; Example 8) [%] | also measured
CCCCCCC1CO1 (stereo not shown) [1,2-epoxyoctane] |  |  |  |  |  | Rate of flux ([1]; not told): 1.45 g h^−1m^−2 for 1,2-epoxyoctane
C=C(C)C1CC=C(C)C(=O)C1 (stereo not shown) [carvone] | 8 | 40 |  |  |  | solubility (physchem): ~0.6 mg/mL (≈ 3.99 mM)
C=C(C)[C@H]1CC=C(C)CC1 [limonene] | 2.0 | 2 | 5% | 4.6 |  | 
C=C(C)[C@@H]1CCC2=CC(O)C[C@@H](C)[C@]2(C)C1 (stereo partly shown) [nootkatol] |  |  |  |  | 100 | 
C=C(C)[C@@H]1CCC2=CC(=O)C[C@@H](C)[C@]2(C)C1 [nootkatone] |  |  | component limonene. After 2.5 days, 28% | 1.2 | 100 | Rate of flux ([1]; Example 1, cellulose acetate, thickness 0.05 mm, M.W. cut-off 12-14,000 Da): 0.08 g nootkatone h^−1m^−2. g h^−1m^−2; recovered from culture broth into n-hexane ([3]; Example 7, culture one (no Tween 80), 48 h, 30° C., 160 rpm): 96%; efficiency of extraction into n-hexane ([3]; Example 7, culture two (with Tween 80 1.3 g), 48 h, 30° C., 160 rpm): 68%; Rate of flux [4]: 0.130 g h^−1m^−2 for nootkatone
C=C(C)[C@@H]1CCC2=CCC[C@@H](C)[C@]2(C)C1 [valencene] |  |  |  |  |  | presence in the n-hexane extraction solvent ([3]; Example 7, culture one): not detected; presence in the extraction solvent ([3]; Example 7, culture two (with Tween 80)): trace amount; presence in the n-decane ([3]; Example 8, 72 h): not detected

From patent US20030185956A1, “Separation method” (priority 2000, published 2003)
